In patent publication US20170095440A1, “METHOD OF TREATING CANINE PANCREATITIS” (CK9, LLC, priority 2014, published 2017):
Where “and” joins values, the source holds several entries; their conditions need not be identical. Equal values may be shown once. Entries after “also recorded” stand apart in the source; their conditions may differ.

What was measured:
rat models = conditions: cited from earlier work
[1] = system: dogs with suspected chronic pancreatitis; test: Serum cTLI before and after treatment, clinical trial; type: in vivo, dog
Experimental: Treatment effects on overall health status, quality of life, and clinical signs were also evaluated with serum biochemistry profiles, complete blood counts, and owner questionnaires.
Dogs were identified by screening current submissions to the Gastrointestinal Laboratory at Texas A&M indicative of pancreatitis (canine pancreas-specific lipase≧400 μg/L) using an immunoassay for measurement of canine pancreas-specific lipase in canine serum known as the spec CPL® Test (IDEXX, Laboratories). A number of potential study participants were directly referred to the investigator by veterinarians, based on positive pet-side SNAP cPL® Test (IDEXX Laboratories, Westbrook, Me., USA) results and concomitant clinical signs. After ascertaining individual suitability of a patient with the referring veterinarian, serum canine pancreas-specific lipase concentration, serum biochemistry profile, and complete blood count were evaluated or re-evaluated 12±4 days after collection of the initial sample submission to the Gastrointestinal Laboratory. Based on the assumption that consecutive canine pancreas-specific lipase elevations indicate chronic pancreatitis, enrollment was offered for patients with canine pancreas-specific lipase concentrations≧400 μg/L, serum triglyceride concentrations below 500 mg/dL, and no indication of hepatic, renal, or other organ disease. […] Owner consent was required prior to phlebotomy and for enrollment into the trial.
[…] […] Individual patients were medicated for between 21 to 31 days.
Blood samples were collected before beginning the treatment and after completion of the treatment period. Complete blood count (red blood cell count, hematocrit, mean corpuscular volume, mean corpuscular hemoglobin, mean corpuscular hemoglobin concentration, differential and absolute white blood cell count, red blood cell count, hemoglobin, platelet estimate, red blood cell morphology, white blood cell morphology, and hemoparasites) was evaluated at the Texas Veterinary Medical Diagnostic Laboratory (TVMDL). A serum chemistry profile with electrolytes (glucose, blood urea nitrogen, creatinine, calcium, phosphorus, albumin, total protein, total bilirubin, alkaline phosphatase, alanine amino transferase, aspartate amino transferase, γ-glutamyl transferase, cholesterol, triglycerides, globuline, sodium, potassium, and chloride) was performed on a SIRRUS analyzer (Stanbio, Boerne, Tex., USA). Serum concentrations of cPL (RI: 0-200 μg/L; Spec cPL® IDEXX Laboratories, Westbrook, Me., USA), cTLI (RI: 5.7-45.2 μg/L; Canine TLI DOUBLE ANTIBODY®, Siemens Healthcare Diagnostics, Los Angeles, Calif., USA), cobalamin (RI: 251-908 ng/L), and folate (RI: 7.7-24.4 μg/L; Immulite 2000®, Siemens Healthcare Diagnostics Inc., Deerfield, Ill., USA), canine specific C-reactive protein (RI: 0-7.6 mg/L, Tridelta Development Limited, Maynooth, CO. Kildare, Ireland), S100A12 (RI: 56-331 μg/L, Gastrointestinal Laboratory in-house radioimmunoassay), and TGF-β1 (RI: 38-72 ng/mL; Quantikine® ELISA, R&D Systems, Minneapolis, […]., USA) were performed at the Gastrointestinal Lab at Texas A&M University.
Pre-treatment and post-treatment results for all diagnostic tests were statistically analyzed using Prism 6 (GraphPad Software, La Jolla, Calif., USA). The D'Agostino-Pearson omnibus test was used to evaluate all datasets for Gaussian distribution. Groups were compared using a paired t-test for normally-distributed data sets and a Wilcoxon matched-pairs test when Gaussian distribution could not be assumed. Mean values and standard deviation are reported for data sets with Gaussian distribution. Median and minimum/maximum values are reported for data sets where Gaussian distribution could not be assumed. The significance threshold was set at p=0.05.

trypsin = trypsin (Homo sapiens, UniProt P07477); conditions: cited from earlier work
Beagle dogs = test: Rising-dose tolerance study, oral capsule; type: in vivo, dog
Experimental: The following parameters and end points were evaluated in the rising-dose phase of this study: clinical signs, body weights, body weight changes, food consumption, electrocardiography, clinical pathology parameters (hematology, clinical chemistry, and urinalysis), and gross necropsy findings.
3 male and 3 female Beagle dogs were received from Marshall BioResources, North Rose, N.Y. The animals were examined and weighed on the day following receipt. The rising-dose phase animals were 6 months old and weighed 7.5 kg and 8.3 kg at initiation of dosing. The multiple-dose phase animals were 7 months old and weighed 7.4 kg and 7.6 kg at initiation of dosing.
For the rising-dose phase, the test article was administered to the appropriate animals by oral capsule. At least a 3-day washout period was maintained before proceeding to the next dose level; therefore, dosing occurred on Days 1, 5, 9, 15, and 19. The dose amount for each animal was based on the most recent body weight measurement. The first day of dosing was designated as Study Day 1.
The animals were removed from the cage and a detailed clinical observation was performed daily, beginning during Week −1, 1 to 3 hours postdose on days of dosing. Each animal was weighed on the day of randomization and Days 1, 5, 9, 15, 19, and 22. Food consumption was quantitatively measured for each animal daily, starting Week −1, throughout the dosing period, except for on the day of scheduled euthanasia. Electrocardiogram (ECG) measurements were obtained from all animals using leads I, II, III, aVR, aVL, and aVF and a chart speed of 50 mm/second. The ECG measurements were obtained once pretreatment and at approximately 3 hours postdose on Days 1, 5, 9, 15, and 19. Only lead II was evaluated by a board-certified veterinary cardiologist.
Blood was collected by venipuncture of the jugular vein. Urine was collected overnight by cage pan drainage. After collection, samples were transferred to the clinical pathology laboratory for processing. The animals were fasted overnight prior to scheduled clinical pathology sample collections, but had access to water ad libitum. Samples were collected according to Table 5.
Rising-dose phase animals surviving until scheduled euthanasia were weighed, samples for evaluation of clinical pathology parameters were collected as specified above, and the animals were euthanized by sodium pentobarbital injection, followed by exsanguination. Animals were fasted overnight before their scheduled necropsy.
Rising-dose phase animals were subjected to a complete necropsy examination, which included evaluation of the carcass and musculoskeletal system; all external surfaces and orifices; cranial cavity and external surfaces of the brain; and thoracic, abdominal, and pelvic cavities with their associated organs and tissues. Necropsy examinations were conducted under the supervision of a board-certified veterinary pathologist.

plasmin = plasmin (Homo sapiens, UniProt P00747); conditions: cited from earlier work
[2] = following each dose, 10-250 mg/kg, methanesulfonate

Chain of plasmin (P00747 581-810 limits assumed, species assumed): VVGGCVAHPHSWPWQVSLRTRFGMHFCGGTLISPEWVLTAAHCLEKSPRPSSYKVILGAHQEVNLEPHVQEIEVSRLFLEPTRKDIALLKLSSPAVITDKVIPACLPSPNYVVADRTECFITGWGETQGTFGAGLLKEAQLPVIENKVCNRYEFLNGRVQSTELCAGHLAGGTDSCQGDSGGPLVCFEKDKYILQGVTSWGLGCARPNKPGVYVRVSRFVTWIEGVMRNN
Chain of plasmin (P00747 97-580 partner limits assumed, species assumed): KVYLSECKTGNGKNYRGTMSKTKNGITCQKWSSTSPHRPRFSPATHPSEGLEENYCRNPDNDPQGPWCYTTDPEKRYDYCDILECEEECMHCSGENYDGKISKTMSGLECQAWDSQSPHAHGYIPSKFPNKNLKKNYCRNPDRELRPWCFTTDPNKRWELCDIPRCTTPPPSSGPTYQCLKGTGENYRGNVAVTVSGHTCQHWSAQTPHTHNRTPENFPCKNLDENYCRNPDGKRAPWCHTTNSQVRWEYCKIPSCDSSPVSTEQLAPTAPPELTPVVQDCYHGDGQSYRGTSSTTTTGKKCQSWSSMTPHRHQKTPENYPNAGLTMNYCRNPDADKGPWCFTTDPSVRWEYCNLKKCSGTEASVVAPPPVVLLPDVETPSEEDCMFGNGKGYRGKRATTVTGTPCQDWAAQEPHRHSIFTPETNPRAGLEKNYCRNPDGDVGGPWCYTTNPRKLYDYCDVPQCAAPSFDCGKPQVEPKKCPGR

For CN(C)C(=O)COC(=O)Cc1ccc(OC(=O)c2ccc(NC(=N)N)cc2)cc1 [Camostat Mesilate, N,N-dimethylcarbamoylmethyl-4-(4-guanidinobenzoyloxy)phenylacetate methanesulfonate], the “Fibrosis associated with chronic pancreatitis” value (rat models) is listed as “suppress fibrosis”, the “Microscopic signs of inflammation” value (rat models) is listed as “markedly decrease microscopic signs of inflammation” and the Pro-inflammatory cytokine production (rat models) is listed as “suppress pro-inflammatory cytokine production”. For the same molecule, the “Change in serum cTLI, pre- vs post-treatment” value (from here on “Change in serum cTLI”) ([1]; 4 mg/kg q 8 hrs, n=11, methanesulfonate) was “no significant difference; also recorded: did not change significantly”, the “Serum cTLI concentration post-treatment (median)” value ([1]; 4 mg/kg q 8 hrs, n=11, pre-treatment median 22, post range 17-55, p=0.8311) was 28 µg/L and the “Change in serum cTLI” value ([1]; 8 mg/kg q 8 hrs, n=17, methanesulfonate) was “no significant difference; also recorded: No significant changes”. The “Serum cTLI concentration post-treatment (median)” value ([1]; 8 mg/kg q 8 hrs, n=17, pre-treatment median 35, p=0.1594, methanesulfonate) was 22 µg/L and 24 µg/L, the “Change in serum cTLI” value ([1]; all treated dogs combined, n=28, methanesulfonate) was “no significant difference; also recorded: No significant changes” and the “Serum cTLI concentration post-treatment (median)” value ([1]; all treated dogs combined, n=28, pre-treatment median 32, post range 6-81, p=0.2098) was 25 µg/L. For the same molecule, the Anti-trypsin activity (trypsin) was “pronounced anti-trypsin”, the Clinical observations (Beagle dogs; 10 mg/kg single oral dose) was “soft feces were noted in the female the day after dosing” and the Clinical observations (Beagle dogs; 30 mg/kg single oral dose) was “no clinical observations noted”. For the same molecule, the Clinical observations (Beagle dogs; 100 mg/kg single oral dose) was “clear ocular discharge was observed in the female”, the Clinical observations (Beagle dogs; 200 mg/kg single oral dose, methanesulfonate) was “slight salivation and soft feces/feces with mucoid material were observed in the male and female” and the Clinical observations (Beagle dogs; 250 mg/kg single oral dose, methanesulfonate) was “severe salivation was observed following dosing in the male and female; also recorded: salivation and soft feces/feces with mucoid material”. The Gross necropsy findings (Beagle dogs; Day 22) was “no gross necropsy findings”, the Body weight (Beagle dogs; between doses, 10-250 mg/kg) was “no notable changes” and the Food consumption (Beagle dogs; between doses, 10-250 mg/kg) was “no notable changes”. For the same molecule, the “Clinical chemistry, potential test article-related changes” value (Beagle dogs; female, following the 200 and 250 mg/kg doses) was “increased creatine kinase”, the Hematology parameters (Beagle dogs; [2]) was “no toxicologically meaningful changes; also recorded: no notable changes” and the Urinalysis parameters (Beagle dogs; [2]) was “no toxicologically meaningful changes; also recorded: no notable changes”. The “Clinical chemistry, potential test article-related changes” value (Beagle dogs; male, following the 250 mg/kg dose) was “increased creatinine, total bilirubin, and urea nitrogen”, the Survival (Beagle dogs; single oral doses 10, 30, 100, 200, 250 mg/kg, 1 male and 1 female, methanesulfonate) was “No rising-dose phase animals died; also recorded: All animals survived to scheduled euthanasia” and the Anti-plasmin activity (plasmin) was “anti-plasmin activity”.
